We go through 7 molecules from patent US9981972B2, “N-hydroxy bicyclic hydantoin carbamates as tools for identification of serine hydrolase targets” (ABIDE THERAPEUTICS, INC., priority 2014, dated 2018).

One experiment concerns the target T1, human LYPLA1 (Homo sapiens, UniProt O75608).
T1 construct: endogenous human LYPLA1/2 in a HeLa soluble proteome; endogenous in cells; host or cells: HeLa (soluble proteome in vitro; cultured cells in situ)
Kind of experiment: IC50 by gel-based competitive ABPP in vitro, soluble HeLa cell proteome. In kind it is biochemical.

In a further experiment the target is T2, human LYPLA2 (Homo sapiens, UniProt O95372).
T2 construct: endogenous human LYPLA1/2 in a HeLa soluble proteome; endogenous in cells; host or cells: HeLa (soluble proteome in vitro; cultured cells in situ)
T2 sequence (O95372 whole entry): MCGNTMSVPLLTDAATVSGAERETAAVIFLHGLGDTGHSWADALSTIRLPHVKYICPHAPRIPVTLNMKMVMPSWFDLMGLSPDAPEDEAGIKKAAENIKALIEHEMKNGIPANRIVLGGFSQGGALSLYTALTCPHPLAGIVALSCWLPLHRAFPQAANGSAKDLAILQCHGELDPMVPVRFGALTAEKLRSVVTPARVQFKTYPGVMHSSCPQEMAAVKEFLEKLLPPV
The experiment is described as above. In kind it is biochemical.

Experiment [1] concerns serine hydrolases in PC3 cells. Kind of experiment: ABPP-SILAC, PC3 cells treated in situ, other SH targets. In kind it is cell-based, human. Particulars: 4 h in situ. As to the method: In situ inhibitor treatments of human cell lines were performed as described previously (Hsu et al., J Med Chem 56, 8270-8279, 2012). Briefly, PC3 or transfected HEK293T cells were grown to confluency in serum-containing media (RPMI or DMEM, respectively). The culture media was then removed and replaced with fresh media containing DMSO or inhibitor at the desired concentration and incubated for 4 hours in a tissue culture incubator (37° C., 5% CO2). Cells were then washed with PBS, harvested, washed with PBS once more, and lysed with a probe sonicator.
The activity and selectivity of dual ABHD3/4 and ABHD4-preferring inhibitors in PC3 cells by ABPP-SILAC was assessed. Isotopically heavy and light PC3 cells were treated in situ with inhibitor (Compound 37 (1 μM) or Compound 38 (0.5 μM)) or DMSO for 4 h and then lysed and processed for ABPP-SILAC analysis.
Isotopically heavy- and light-labeled PC3 cells were treated with Compound 37 (1 μM) or DMSO for 4 h, respectively, lysed, and then treated Compound 39 (5 μM, 1 h). […] Among the handful of additional SH targets of Compound 37 were ABHD6 and PLA2G7, which were expected based on our ABPP-SILAC studies with FP-biotin (see FIG. 9), and protein-palmitoyl thioesterase 1 (PPT1), which was inhibited by more than 90%. […] Accordingly, PPT1 was not detected in our previous ABPP-SILAC studies with FP-biotin (see FIG. 9). The selective enrichment of PPT1 by Compound 39 was confirmed by performing a probe-versus-probe ABPP-SILAC study, where heavy and light PC3 proteomes were treated with FP-biotin (2.5 μM, 1 h) and Compound 39 (5 μM, 1 h), respectively. PPT1, along with two additional SHs LIPA and DDHD2, were preferentially enriched by Compound 39 over FP-biotin, while most of the other SHs were more strongly enriched by FP-biotin (see FIG. 13). A handful of SHs corresponding mostly to enzymes that were identified in our ABPP-SILAC studies as targets of Compound 37 (see FIGS. 9 and 12), were equivalently enriched by Compound 39 and FP-biotin (see FIG. 13).
To evaluate the broader selectivity of Compound 26 and Compound 34 across the SH class, heavy and light isotopically-labeled PC3 cells were treated with inhibitor [Compound 34 (1 μM); or Compound 26 (1 or 0.1 μM); 4 h) and DMSO, respectively, followed by ABPP-SILAC analysis with either the FP-biotin probe or the Compound 39 probe. […] Conversely, Compound 34 inhibited >90% of ABHD4 activity, as measured with either the FP-biotin probe or the Compound 39 probe, and cross-reacted with four additional targets—ABHD6, PAFAH2, PLA2G7, and PLA2G15.

Setting [2] is: first value of the cell, read-out: hLYPLA1/2 in vitro potency (IC50): hLYPLA1.
Where [3] appears, read: second value of the cell, read-out: hLYPLA1/2 in vitro potency (IC50): hLYPLA2.

Entries after “also recorded” stand apart in the source; their conditions may differ. Like-named read-outs stand apart in the source and are kept apart here.

T1 sequence (O75608 whole entry): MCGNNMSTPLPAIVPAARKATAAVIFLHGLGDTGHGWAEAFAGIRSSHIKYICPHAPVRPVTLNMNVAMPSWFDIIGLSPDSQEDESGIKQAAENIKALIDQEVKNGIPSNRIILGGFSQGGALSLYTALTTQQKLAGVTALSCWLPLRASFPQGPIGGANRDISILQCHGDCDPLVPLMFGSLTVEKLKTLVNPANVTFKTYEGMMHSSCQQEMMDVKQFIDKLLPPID

Turning to `O=C(ON1C(=O)C2CN(C(=O)N3CCOCC3)CCN2C1=O)N1CCC(CCc2ccc(Cl)cc2)CC1` (stereo not shown) [Compound 1, 7-(morpholine-4-carbonyl)-1,3-dioxohexahydroimidazo[1,5-a]pyrazin-2(3H)-yl 4-(4-chloro-phenethyl)piperidine-1-carboxylate], the IC50 on human LYPLA1 (HeLa cell lysates, FP-Rh, read-out: human LYPLA1 IC50 in vitro) is 122 nM; at human LYPLA2 (HeLa cell lysates, FP-Rh, read-out: human LYPLA2 IC50 in vitro) it was 245 nM.

With `COc1ccc(N2CCN(C(=O)ON3C(=O)C4CN(CC5CCN(Cc6ccccc6)CC5)CCN4C3=O)CC2)cc1` (stereo not shown) [Compound 26, 7-((1-benzylpiperidin-4-yl)methyl)-1,3-dioxohexahydroimidazo[1,5-a]pyrazin-2(3H)-yl 4-(4-methoxyphenyl)piperazine-1-carboxylate], in experiment [1] (1 or 0.1 μM, PC3), the “cross-reacting SHs of >40 quantified” value is “ABHD6 and CPVL”.

For the molecule `O=C(ON1C(=O)C2CN(Cc3ccc(Oc4ccccc4)cc3)CCN2C1=O)N1CCOCC1` (stereo not shown) [Compound 34, 1,3-dioxo-7-(4-phenoxybenzyl)hexahydroimidazo[1,5-a]pyrazin-2(3H)-yl morpholine-4-carboxylate], the additional cross-reacting targets result in experiment [1] (1 μM, PC3) is given as “ABHD6; also recorded: PAFAH2; also recorded: PLA2G7; also recorded: PLA2G15”. With `COc1ccc(N2CCN(C(=O)ON3C(=O)C4CN(Cc5ccc(Oc6ccccc6)cc5)CCN4C3=O)CC2)cc1` (stereo not shown) [Compound 37, 1,3-dioxo-7-(4-phenoxybenzyl)hexahydroimidazo[1,5-a]pyrazin-2(3H)-yl 4-(4-methoxyphenyl)piperazine-1-carboxylate], in experiment [1] (1 μM, Compound 39 probe), the “SHs inhibited in PC3 cells” value is “ABHD4; also recorded: ABHD6; also recorded: PLA2G7”. Consider `O=C(ON1C(=O)C2CN(Cc3ccc(Oc4ccccc4)cc3)CCN2C1=O)N1CCC(c2ccccc2)CC1` (stereo not shown) [Compound 38, 1,3-dioxo-7-(4-phenoxybenzyl)hexahydroimidazo[1,5-a]pyrazin-2(3H)-yl 4-phenylpiperidine-1-carboxylate], for which the “additional targets among 44 serine hydrolases” value in experiment [1] (0.5 μM, PC3, FP-biotin) was “LIPE and PLA2G7 and ABHD6 and CES2”.

For the molecule `C#Cc1ccc(CCC2CCN(C(=O)ON3C(=O)[C@@H]4CN(C(=O)N5CCOCC5)CCN4C3=O)CC2)cc1` [Compound 48, (S)-7-(morpholine-4-carbonyl)-1,3-dioxo-hexahydroimidazo[1,5-a]pyrazin-2(3H)-yl 4-(4-ethynylphenethyl)piperidine-1-carboxylate], the IC50 came to 1750 nM at human LYPLA1 (setting [2]) and 1830 nM at human LYPLA2 (setting [3]). In the same order, the values of `C#Cc1ccc(CCC2CCN(C(=O)ON3C(=O)[C@H]4CN(C(=O)N5CCOCC5)CCN4C3=O)CC2)cc1` [Compound 49, (R)-7-(morpholine-4-carbonyl)-1,3-dioxo-hexahydroimidazo[1,5-a]pyrazin-2(3H)-yl 4-(4-ethynylphenethyl)piperidine-1-carboxylate] are 842 nM and 1430 nM.
